The values below are quoted from earlier work in patent publication US20070237820A1, “Pharmaceutical formulations containing a non-steroidal antinflammatory drug and an antiulcerative drug” (Andrx Pharmaceuticals, LLC, priority 2004, published 2007).

Structures are written as SMILES.

The conditions of data set [1]: NSAIDs such as diclofenac.
For data set [2] the following is noted: patients on chronic use.

Regarding `O=C(O)Cc1ccccc1Nc1c(Cl)cccc1Cl` [diclofenac], in data set [1], the “patients with side effects that require cessation of medication” value was “about 20%”.
Consider `CN1C(C(=O)Nc2ccccn2)=C(O)c2ccccc2S1(=O)=O` [piroxicam], for which, in data set [2], the “patients experiencing gross bleeding and ulceration” value was “up to 4%”.
